Values joined by “and” are separate entries in the source; they are usually repeats but may differ in a detail not shown here. Identical values can stand only once. Active and inactive are the calls of the source.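 Rule for the calls: active = compounds giving half or more protection of infected cells from virus-caused growth loss, again on retest; inactive = the rest.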 Where a SMILES comes first, the peptide text is derived from it. The star is where a group is joined. Boc = CC(C)(C)OC(=O)*
Test system: CEM cells HIV-1 protection, formazan growth assay
Test: NCI AIDS Antiviral Assay
Settings: for IC50: measured here: growth of uninfected CEM cells
How it was run: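 Protection of CEM cells against HIV-1 was scored from cell growth (soluble formazan) across five concentrations, with parallel uninfected cells. Lack of protection may reflect toxicity.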

COC(=O)C1Cc2c([nH]c3ccccc23)-c2[nH]c3ccccc3c2CC(NC(C)=O)C(=O)N2CCCC2C(=O)N1 (configuration not stated)
EC50: > 200 µM
IC50: 36.3 µM

O=C(CCc1ccccc1)ON1C(=S)NC(c2ccccc2)(c2ccccc2)C1=S
EC50: > 200 µM
IC50: 33.1 µM

CC(O)CSP(=S)(Oc1ccccc1)Oc1ccccc1 (configuration not stated)
EC50: > 39.8 µM
IC50: > 39.8 µM

Nc1nnc(-c2ccccc2S)o1
EC50: > 63.1 µM
IC50: 26.9 µM

O=C(CC(=O)N(C(=O)c1ccccc1)c1ccc(Cl)cc1)N/N=C\c1ccccc1O
EC50: > 200 µM
IC50: > 200 µM

Fc1cccc(F)c1C1SCc2nc3ncccc3n21 (configuration not stated)
EC50: 39.8 µM
IC50: 61.7 µM

CC1N=C(c2ccccn2)C(c2ccccn2)=NC1c1ccccc1 (configuration not stated)
EC50: > 79.4 µM
IC50: > 79.4 µM

Cc1nc(N)nc(N)c1N1CCNCC1
EC50: > 200 µM
IC50: > 200 µM

CC#CCOC(=O)c1ccccc1OC(C)=O.[C-]#[O+].[C-]#[O+].[C-]#[O+].[C-]#[O+].[C-]#[O+].[C-]#[O+].[Co].[Co]
EC50: > 200 µM
IC50: 7.76 µM

COc1cccc(N2CCc3c(C)c(C#N)c4nc5ccccc5n4c32)c1
EC50: > 100 µM
IC50: > 100 µM

N#C/C(=C\c1c(Cl)cccc1Cl)c1nc2ccccc2[nH]1
EC50: > 200 µM
IC50: 24.5 µM

C/C=C/COc1cc(NC(=S)c2ccoc2C)ccc1OC
EC50: 0.813 µM
IC50: 1.62 µM

CCOC1Oc2ccccc2-c2nc(C)c(C#N)cc21 (configuration not stated)
EC50: > 83.2 µM
IC50: > 83.2 µM

OCC1NC(CC2OC(CO)C(O)C(O)C2O)C(O)C(O)C1O (configuration not stated)
EC50: > 200 µM
IC50: > 200 µM

CC(C)C1NC(=O)CC(c2ccccc2)N(N=O)C1c1ccccc1 (configuration not stated)
EC50: > 77.6 µM
IC50: > 77.6 µM

CC1(C)CC(Br)(C(Br)c2ccccc2)C(=O)c2ccccc21 (configuration not stated)
EC50: > 200 µM
IC50: 3.89 µM

Nc1ncnc2c1ccn2C/C=C\CO
EC50: > 200 µM
IC50: > 200 µM

Cn1c2ccc(Cl)cc2c2ccc3c(c21)C(=O)C=CC3=O
EC50: > 100 µM
IC50: 12.9 µM

Cc1cc(S(=O)(=O)Nc2nnc3c(Cl)cc(C(F)(F)F)cn23)c(S)cc1Cl
EC50: 70.8 µM
IC50: 380 µM

Cc1ccc(NC(=O)c2cc(S(=O)(=O)Nc3n[nH]c(=O)n3-c3ccccc3)c(S)cc2Cl)cc1
EC50: 42.7 µM
IC50: > 200 µM

Cn1c(CNc2ccc(-c3n[nH]c(=S)n3C)cc2)n[nH]c1=S
EC50: > 200 µM
IC50: > 200 µM

O=C1CN(CCN2CCOCC2)CC(=O)N2Cc3ccccc3CN12
EC50: > 200 µM
IC50: > 200 µM

Cn1cc(C2(C)CC(C)(C)c3c2n(C)c2ccccc32)c2ccccc21 (configuration not stated)
EC50: > 55 µM
IC50: 47.9 µM

CC(=O)Nc1cc2cc(N)ccc2oc1=O
EC50: > 107 µM
IC50: > 107 µM

Clc1ccc(-c2nnc3n2NC(c2ccccc2)S3)c(Cl)c1 (configuration not stated)
EC50: > 85.1 µM
IC50: 69.2 µM

CCc1noc(N)c1C#N
EC50: > 200 µM
IC50: 182 µM

COC(=O)C(/C(=N\O)C(=O)Nc1cccc(Cl)c1C)c1cnc2ccccc2n1 (configuration not stated)
EC50: > 17.4 µM
IC50: > 17.4 µM

COC1/C=C\C=C(/C)C(=O)NC2=CC(=O)C(NCCCl)=C(CC(C)CC(OC)C(O)C(C)/C=C(/C)C1OC(N)=O)C2=O (configuration not stated)
outcome: inactive

CC1=NN(C(=O)Cc2ccccc2)C(=O)/C1=C\c1ccccc1O
EC50: > 22.4 µM
IC50: > 22.4 µM

COC(=O)C1(C(=O)OC)N=C(C)OC1c1ccoc1 (configuration not stated)
EC50: > 200 µM
IC50: > 200 µM

CN(C)CCNC(=O)c1cccc(C(C)(C)C)c1[N+](=O)[O-]
EC50: > 200 µM
IC50: 135 µM

[N-]=[N+]=Nc1ccc2c(c1)Sc1ccccc1N2CCCCN1CCN(Cc2ccc(C(=O)c3ccccc3)cc2)CC1
EC50: > 100 µM
IC50: 6.03 µM

N=C1N(c2ccccc2)C(N)(N)SSC(N)(N)N1c1ccccc1
EC50: > 141 µM
IC50: 17.4 µM

O=C1C=C(Nc2ccc(S(=O)(=O)Nc3nccs3)cc2)c2ccccc2C1=O
EC50: > 316 µM
IC50: 38.9 µM

Cc1ccc(/C(C#N)=C/c2ccc3c(c2)OCO3)cc1
EC50: > 200 µM
IC50: 10 µM

Cc1c(C2CCSc3ccccc3N2)sc2ccccc12 (configuration not stated)
EC50: > 200 µM
IC50: 148 µM

Cc1ccc2[nH]c3c(c(=O)n(C)c(=O)n3C)c2c1
EC50: > 200 µM
IC50: > 200 µM

CC12CC(Sc3ccccc3N1)c1ccccc1O2 (configuration not stated)
EC50: > 132 µM
IC50: 21.4 µM

O=C1c2ccccc2C=c2c1nc1c(O)ccc3cccc2c31
EC50: > 100 µM
IC50: 15.5 µM

NS(=O)(=O)c1ccc(-c2c3nc(c(-c4ccc(S(N)(=O)=O)cc4)c4ccc([nH]4)c(-c4ccc(S(N)(=O)=O)cc4)c4nc(c(-c5ccc(S(N)(=O)=O)cc5)c5ccc2[nH]5)C=C4)C=C3)cc1
EC50: > 97.7 µM
IC50: 46.8 µM

C[Si](C)(C)C#CC#C[Si](C)(C)C.[C-]#[O+].[C-]#[O+].[C-]#[O+].[C-]#[O+].[C-]#[O+].[C-]#[O+].[C-]#[O+].[C-]#[O+].[C-]#[O+].[C-]#[O+].[C-]#[O+].[C-]#[O+].[Co].[Co].[Co].[Co]
EC50: > 1.91 µM
IC50: > 1.91 µM

O=S(=O)(NC1CCC[C@H]1O)c1ccccc1 (some centres not stated)
outcome: inactive

CCCCCCCN=c1ssc(=O)n1CCCCCCC
EC50: > 200 µM
IC50: 8.91 µM

CCOC(=O)c1c(NC(=O)c2ccccc2)sc2c1CCC2
EC50: > 151 µM
IC50: > 151 µM

CCOc1ccc(Nc2nc(C)c(C(=O)/C=C/c3ccc(Cl)cc3Cl)s2)cc1
EC50: > 22.9 µM
IC50: 20 µM

CN=C(c1ccc(NC(=O)c2ccc(C(=O)Nc3ccc(C(=NC)N4CCOCC4)cc3)c(Cl)c2)cc1)N1CCOCC1
EC50: > 200 µM
IC50: > 200 µM

O=C1c2c(O)ccc(O)c2C(=O)c2c(NCCCCO)ccc(NCCCCO)c21
EC50: 15.8 µM
IC50: 17.4 µM

N#Cc1c(NC(=S)Nc2ccc(Cl)cc2)sc2c1CCCC2
EC50: > 200 µM
IC50: > 200 µM

COc1ccc(CCc2ncc[nH]2)cc1
EC50: > 708 µM
IC50: > 708 µM

COc1ccc(Nc2cc(=O)[nH]c(=O)[nH]2)cc1
EC50: > 200 µM
IC50: > 200 µM

CCOC(=O)C[n+]1cccc(C2(c3cc4ccccc4[nH]3)OCCO2)c1
EC50: > 200 µM
IC50: > 200 µM

COc1cccc(C2CC(C)=Nc3c(ccc4c3C(=O)c3ccccc3C4=O)N2)c1O (configuration not stated)
EC50: > 9.12 µM
IC50: > 9.12 µM

COC(=O)CNC(=O)C(CC(C)C)NC(=O)C(CC(C)C)NC(=O)OC(C)(C)C (stereo not drawn) (Boc-Leu-Leu-Gly-OMe; configuration not given here)
outcome: inactive

C=C1C(=O)OCC2C(C(=O)O)=CC3C(C)C(C)=CC123 (configuration not stated)
EC50: > 692 µM
IC50: 11.2 µM

Cc1nc(N)sc1C(=O)/C=C/c1ccc([N+](=O)[O-])cc1
EC50: > 871 µM
IC50: 57.5 µM

CC(CC(=O)O)C(N)C(=O)O (configuration not stated)
EC50: > 200 µM
IC50: > 200 µM

Cc1cc(O)c2c(c1)C(O)(c1ccc3c(c1O)C(=O)c1c(O)cc(C)cc1C3(O)C1OC(CO)C(O)C(O)C1O)c1cccc(O)c1C2=O (configuration not stated)
outcome: inactive

CC1(C)N=C(/C(Cl)=[N+](/[O-])C(=O)c2ccc(F)cc2)C(C)(C)N1O
EC50: > 200 µM
IC50: 51.3 µM

CCCCOCn1c(=O)[nH]c(=O)c2cc(Br)ccc21
EC50: > 200 µM
IC50: 93.3 µM

CCOC(=O)c1c(N)[nH]c(SSc2[nH]c(N)c(C(=O)OCC)c2C(=O)OCC)c1C(=O)OCC
EC50: > 200 µM
IC50: 0.417 µM

Cc1ccc(N2C(=O)/C(=c3\s/c(=C(/N)O)c(=N)n3-c3ccccc3)SC2=S)cc1
EC50: > 4.57 µM
IC50: > 4.57 µM

CCc1nc(N)nc(C(=O)NCCNC(=O)c2nc(N)nc(CC)c2C)c1C
EC50: > 67.6 µM
IC50: > 67.6 µM

CC1C2CC3(c4ccccc4)CC(/C2=N\O)/C(=N/O)C1/C3=C\O (configuration not stated)
EC50: > 200 µM
IC50: > 200 µM

O=C(NO)c1ccc(OCc2cccc(Cl)c2)cc1
EC50: > 200 µM
IC50: 10 µM

CC1(O)C(O)C(O)C1(O)CO (configuration not stated) (tested in a mixture with another compound)
EC50: > 200 µM
IC50: > 200 µM

Nc1nc(=S)c2ncn(C3CC(O)C(CO)O3)c2[nH]1 (configuration not stated)
EC50: > 891 µM
IC50: 0.457 µM and 2.09 µM

Cc1cc2c(c(C=NCc3ccccc3)c1)OC1(C=C2)Oc2ccccc2C(=O)N1C (configuration not stated)
EC50: > 200 µM
IC50: 52.5 µM

NC(=O)C1=CN(Cc2ccc(F)cc2)c2ccccc2C1S(=O)(=O)O (configuration not stated)
outcome: inactive
IC50: 245 µM

COC(=O)CN1C(=O)C2(C(=O)OC)OC1(c1ccc([N+](=O)[O-])cc1)C1C(=O)N(c3ccccc3)C(=O)C12 (configuration not stated)
EC50: > 200 µM
IC50: > 200 µM

COC(=O)C(=O)C(C(=O)C=C(C)C)C(=O)C(=O)Nc1nc2ccc([N+](=O)[O-])cc2s1 (configuration not stated)
EC50: > 60.3 µM
IC50: > 60.3 µM

CC(C)CN1CN(c2ccccc2)C2(CCN(CC(C)(c3ccc(F)cc3)C3OCCO3)CC2)C1=O (configuration not stated)
EC50: > 100 µM
IC50: 12.6 µM

Fc1c(F)c(F)c(CSc2nc3ccccc3[nH]2)c(F)c1F
EC50: > 200 µM
IC50: 145 µM

O=C(O)/C(Cl)=C(\Cl)C(=O)Nc1ccccc1
outcome: inactive

Cc1nn(C(=O)c2c(O)cccc2Cl)c(C)c1N=Nc1ccccc1
outcome: inactive

COc1cc(OC)cc(Oc2nc3c(N)cc(C(F)(F)F)cc3nc2-c2ccccc2)c1
EC50: > 200 µM
IC50: > 200 µM

CC(=O)OC1CC2CCC1(C)C2(C)C (configuration not stated)
EC50: > 200 µM
IC50: > 200 µM

CN(C)c1ccc(/C=C/C=C(/C#N)c2ccccc2)cc1
EC50: > 100 µM
IC50: 12.3 µM

N#Cc1ccc(OCc2ccc3nc(-c4ccccc4)c(Cl)nc3c2)cc1
EC50: > 100 µM
IC50: > 100 µM

O=C(Nc1ccc(NC(=O)c2ccc(C3=NCCN3)cc2)cc1)Nc1ccc(C2=NCCN2)cc1
EC50: > 200 µM
IC50: 50.1 µM

C/C(=N\NC(N)=S)c1ccc(Oc2ccccc2)cc1
outcome: inactive

Cc1ccc(SCC(CF)OC(C)n2cnc3c(Cl)nc(N)nc32)cc1 (configuration not stated)
EC50: > 200 µM
IC50: 38 µM

CC1(C)C(=O)C(C)(C)C1=NNC(N)=S
EC50: > 417 µM
IC50: 263 µM

CC(=O)c1cccc(NC(=O)C(=O)C(C(=O)c2ccccc2F)C2OC(=O)c3ccccc32)c1 (configuration not stated)
EC50: > 389 µM
IC50: 15.8 µM

CCOP(=O)(O)Cc1c(Cl)c(Cl)c(CP(=O)(O)OCC)c(Cl)c1Cl
EC50: > 200 µM
IC50: 132 µM

O=C(NC1CCCC1=O)c1ccccc1 (configuration not stated)
outcome: inactive

— PubChem BioAssay AID179 (DTP/NCI, 2004)
